In article PMC9304199, “A small molecule CFTR potentiator restores ATP‐dependent channel gating to the cystic fibrosis mutant G551D‐CFTR” (British Journal of Pharmacology, 2022):

What was measured:
F508del‐CFTR = F508del‐CFTR (Homo sapiens, UniProt P13569, DEL508-508); experiment: F508del‐CFTR plasma membrane stability in FRT epithelia (Ussing chamber Isc after cycloheximide); assay type: cell-based; design: expressed in transfected cells; BHK cells from MD Amaral; settings: for acute potentiation of forskolin-stimulated CFTR-mediated Isc: DMSO-treated low temperature-rescued F508del‐CFTR FRT epithelia, t = 0 h, forskolin 10 μM, ivacaftor 1 μM, then CP‐628006 10 μM
Procedure: To evaluate the effects of CP‐628006 on the plasma membrane stability of F508del‐CFTR, we used a modification of the method described by Meng et al. ([2017]). After 48‐h incubation at 27°C to rescue the plasma membrane expression of F508del‐CFTR, FRT epithelia were treated with cycloheximide (50 μg·ml^−1) and DMSO or test small molecules, 15 min prior to t = 0 h. At t = 0, 2, 4, and 6 h after these treatments, F508del‐CFTR expressing FRT epithelia were mounted in Ussing chambers (Warner Instrument Corp., Dual Channel Chamber; Harvard Apparatus Ltd., Edenbridge, UK) and Isc responses recorded.
CFTR‐mediated Isc was recorded using a large Cl^− concentration gradient without permeabilizing the basolateral membrane. The solution bathing the basolateral membrane contained (mM): 140 NaCl, 5 KCl, 0.36 K2HPO4, 0.44 KH2PO4, 1.3 CaCl2, 0.5 MgCl2, 10 HEPES, and 4.2 NaHCO3, adjusted to pH 7.2 with Tris ([Cl^−], 149 mM). The solution bathing the apical membrane was identical to that of the basolateral solution with the exception that (mM): 133.3 Na gluconate + 2.5 NaCl and 5 K gluconate replaced 140 NaCl and 5 KCl, respectively, ([Cl^−], 14.8 mM). To compensate for the calcium buffering capacity of gluconate, we used 5.7‐mM Ca^2+ in the apical solution. All solutions were maintained at 37°C and bubbled continuously with 5% CO2.
After cancelling voltage offsets, we clamped transepithelial voltage (referenced to the basolateral solution) at 0 mV and recorded Isc continuously using an epithelial voltage‐clamp amplifier (Warner Instrument Corp., model EC‐825; Harvard Apparatus Ltd.), digitising data as described previously (Li et al., [2004]). The resistance of the filter and solutions, in the absence of cells, was subtracted from all measurements.

G551D‐CFTR = G551D‐CFTR (Homo sapiens, UniProt P13569, G551D); experiment: Ussing chamber apical Cl− current (ICl apical) in FRT epithelia expressing G551D‐CFTR; assay type: cell-based; design: assays at Charles River Laboratories (ChanTest); settings: for EC50: G551D‐CFTR FRT epithelia, ICl apical, 27°C, read-out: EC50 (μM) (95% CI); for Emax: read-out: Maximal effect (%) (95% CI)
Procedure: Ussing chamber studies to determine the concentration–response relationships of CFTR potentiators (Figure 1c–f) were performed at Charles River Laboratories (ChanTest) (Cleveland, OH, USA). For these studies, FRT cells were stably transfected with CFTR cDNAs with the F508del and G551D variants and the common polymorphism M470 (synthesised by System Biosciences, Palo Alto, CA, USA) using the Flp‐In™ system (Thermo Fisher Scientific, Waltham, MA, USA). The F508del‐CFTR cDNA contained the following differences from the canonical CFTR cDNA sequence (NCBI Accession Number NM_000492): del CTT (1521–1523) to delete F508; synonymous changes T > C (798), A > G (801), T > C (804) to remove a cryptic bacterial promoter; synonymous change T > C (1095); G > A (1408) to give M470 and was amplified using the primers 5′ […] 3′ and 5′ […] 3′. The G551D‐CFTR cDNA contained the following differences from the canonical CFTR cDNA sequence (NCBI Accession Number NM_000492): G > A (1652) to replace G551 with D551; synonymous changes T > C (798), A > G (801), T > C (804) to remove a cryptic bacterial promoter; synonymous change A > C (516); synonymous change T > C (1095); G > A (1408) to give M470 and was amplified using the primers 5′ […] 3′ and 5′ […] 3′. Using Kpn1 and Not1 restriction sites, the F508del‐ and G551D‐CFTR cDNAs were inserted into pcDNA5/FRT (Flp‐In™) (RRID:Addgene_31984). An FRT cell line stably expressing a flippase (Flp)‐recombinase recognition target integration site (generated by Evotec AG, Hamburg, Germany, using isogenic FRT cells from LJV Galietta) was transfected with the F508del‐ and G551D‐CFTR plasmids and the Flp recombinase plasmid pOG44 (RRID:Addgene_129419) following the manufacturer's instructions. To identify FRT cells expressing F508del‐ and G551D‐CFTR, cells were grown under hygromycin selection and individual clones picked, expanded, and verified for CFTR expression. For Ussing chamber studies to determine the plasma membrane stability of F508del‐CFTR, FRT cells expressing F508del‐CFTR from LJV Galietta were cultured and used as described previously (Meng et al., [2017]).
To grow FRT cells as polarised epithelia, 2 × 10^5 FRT cells were seeded on Snapwell filter inserts and cultured for 7–14 days before use; media were changed every 2–3 days. […]
To test the effects of CP‐628006 on CFTR Cl^− channels in the apical membrane of FRT epithelia, we permeabilized the basolateral membrane with amphotericin B (100 μM). After cancelling voltage offsets, we clamped transepithelial voltage at 0 mV and measured apical Cl^− current (ICl ^apical) continuously using a Physiologic Instruments VCC MC6/8 multichannel voltage/current clamp (Li et al., [2004]).

Sequence of F508del‐CFTR (P13569 with tags, fused parts or gaps DEL508-508): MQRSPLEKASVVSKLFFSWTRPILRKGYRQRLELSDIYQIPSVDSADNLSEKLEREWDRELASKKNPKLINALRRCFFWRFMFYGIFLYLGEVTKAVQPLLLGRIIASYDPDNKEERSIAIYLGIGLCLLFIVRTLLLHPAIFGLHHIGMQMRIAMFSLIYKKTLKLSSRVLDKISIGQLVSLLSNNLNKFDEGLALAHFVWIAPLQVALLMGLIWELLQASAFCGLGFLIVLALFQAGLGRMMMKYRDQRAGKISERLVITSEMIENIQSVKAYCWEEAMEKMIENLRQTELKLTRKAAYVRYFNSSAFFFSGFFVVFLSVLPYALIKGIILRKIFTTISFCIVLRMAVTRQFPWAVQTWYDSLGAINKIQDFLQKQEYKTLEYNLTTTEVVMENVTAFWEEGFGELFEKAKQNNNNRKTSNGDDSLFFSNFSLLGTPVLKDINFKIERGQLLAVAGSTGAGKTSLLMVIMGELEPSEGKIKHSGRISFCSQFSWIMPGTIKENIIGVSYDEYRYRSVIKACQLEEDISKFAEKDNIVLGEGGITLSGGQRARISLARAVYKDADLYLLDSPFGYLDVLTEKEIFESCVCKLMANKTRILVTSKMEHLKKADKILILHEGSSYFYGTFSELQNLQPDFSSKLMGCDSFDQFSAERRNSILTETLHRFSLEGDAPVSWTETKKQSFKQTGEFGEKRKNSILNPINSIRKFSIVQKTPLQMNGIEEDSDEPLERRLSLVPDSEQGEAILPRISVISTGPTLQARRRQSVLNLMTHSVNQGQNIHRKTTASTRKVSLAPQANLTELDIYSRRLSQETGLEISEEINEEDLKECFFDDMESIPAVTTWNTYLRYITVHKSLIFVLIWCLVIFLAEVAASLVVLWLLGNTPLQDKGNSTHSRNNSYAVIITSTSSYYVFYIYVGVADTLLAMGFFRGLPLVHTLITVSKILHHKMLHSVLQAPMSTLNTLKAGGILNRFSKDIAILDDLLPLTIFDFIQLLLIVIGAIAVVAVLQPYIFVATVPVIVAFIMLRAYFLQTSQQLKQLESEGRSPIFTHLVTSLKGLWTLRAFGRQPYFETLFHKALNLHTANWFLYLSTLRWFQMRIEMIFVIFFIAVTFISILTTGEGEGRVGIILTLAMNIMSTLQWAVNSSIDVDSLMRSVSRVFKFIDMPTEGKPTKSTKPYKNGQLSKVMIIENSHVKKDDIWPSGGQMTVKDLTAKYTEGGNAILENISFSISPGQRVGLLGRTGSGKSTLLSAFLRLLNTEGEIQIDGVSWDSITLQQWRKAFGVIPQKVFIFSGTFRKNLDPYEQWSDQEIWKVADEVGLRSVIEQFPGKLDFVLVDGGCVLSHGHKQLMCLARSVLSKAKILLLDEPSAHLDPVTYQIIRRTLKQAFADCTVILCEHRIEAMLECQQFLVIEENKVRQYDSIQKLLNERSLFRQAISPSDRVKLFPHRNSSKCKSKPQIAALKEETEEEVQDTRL
Sequence of G551D‐CFTR (P13569 whole entry G551D): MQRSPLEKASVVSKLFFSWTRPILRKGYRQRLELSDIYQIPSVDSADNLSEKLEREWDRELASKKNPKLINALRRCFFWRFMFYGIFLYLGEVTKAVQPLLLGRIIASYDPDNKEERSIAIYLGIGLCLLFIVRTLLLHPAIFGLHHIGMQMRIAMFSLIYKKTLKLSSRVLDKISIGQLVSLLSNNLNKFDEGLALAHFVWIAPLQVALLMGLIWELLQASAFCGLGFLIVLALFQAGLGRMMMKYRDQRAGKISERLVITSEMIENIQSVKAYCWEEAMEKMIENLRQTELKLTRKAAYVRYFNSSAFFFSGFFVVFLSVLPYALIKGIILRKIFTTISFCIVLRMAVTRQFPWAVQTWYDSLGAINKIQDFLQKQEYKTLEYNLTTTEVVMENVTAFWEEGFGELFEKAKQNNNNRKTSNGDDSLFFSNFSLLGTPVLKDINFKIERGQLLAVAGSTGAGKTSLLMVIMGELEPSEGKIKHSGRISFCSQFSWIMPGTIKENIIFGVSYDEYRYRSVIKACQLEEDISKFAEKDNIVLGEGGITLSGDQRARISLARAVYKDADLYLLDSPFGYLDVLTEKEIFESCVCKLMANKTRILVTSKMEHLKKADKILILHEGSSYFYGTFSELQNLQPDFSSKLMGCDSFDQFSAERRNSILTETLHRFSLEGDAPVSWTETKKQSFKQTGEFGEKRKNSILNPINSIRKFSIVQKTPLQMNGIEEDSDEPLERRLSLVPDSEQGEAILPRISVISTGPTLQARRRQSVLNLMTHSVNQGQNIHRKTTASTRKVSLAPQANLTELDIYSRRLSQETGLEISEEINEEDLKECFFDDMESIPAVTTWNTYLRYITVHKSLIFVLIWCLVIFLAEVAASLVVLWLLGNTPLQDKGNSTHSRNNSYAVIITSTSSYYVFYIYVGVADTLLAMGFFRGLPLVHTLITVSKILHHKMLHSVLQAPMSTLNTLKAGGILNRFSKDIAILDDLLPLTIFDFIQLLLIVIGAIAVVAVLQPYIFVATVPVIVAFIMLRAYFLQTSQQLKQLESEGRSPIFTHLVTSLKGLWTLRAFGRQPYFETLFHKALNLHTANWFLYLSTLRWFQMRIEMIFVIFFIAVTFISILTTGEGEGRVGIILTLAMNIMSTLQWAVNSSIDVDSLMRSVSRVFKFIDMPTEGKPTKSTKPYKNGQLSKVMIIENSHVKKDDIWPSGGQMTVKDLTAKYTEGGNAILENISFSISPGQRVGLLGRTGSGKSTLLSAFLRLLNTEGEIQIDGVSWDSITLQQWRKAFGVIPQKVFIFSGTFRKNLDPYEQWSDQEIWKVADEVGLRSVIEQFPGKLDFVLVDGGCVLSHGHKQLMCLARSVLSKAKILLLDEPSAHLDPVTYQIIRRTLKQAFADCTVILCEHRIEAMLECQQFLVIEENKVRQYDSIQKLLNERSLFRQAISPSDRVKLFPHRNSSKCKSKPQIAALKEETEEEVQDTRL

`CC(C)(C)c1cc(C(C)(C)C)c(NC(=O)c2c[nH]c3ccccc3c2=O)cc1O` [ivacaftor, reference compound] was tested, and the “acute potentiation of forskolin-stimulated CFTR-mediated Isc” value (F508del‐CFTR) was “potentiated two‐fold”, the EC50 (G551D‐CFTR) was 0.003 µM and the Emax (G551D‐CFTR) was 97%.

In the case of `Cc1ncccc1CNC(=O)c1ccc2c(c1)CC[C@H]1C[C@](O)(CCC(F)(F)F)CC[C@]21Cc1ccccc1` (racemic) [CP‐628006, rac‐(4bR,7R,8aS)‐4b‐benzyl‐7‐hydroxy‐N‐((2‐methylpyridin‐3‐yl)methyl)‐7‐(3,3,3‐trifluoropropyl)‐4b,5,6,7,8,8a,9,10‐octahydrophenanthrene‐2‐carboxamide], the “acute potentiation of forskolin-stimulated CFTR-mediated Isc” value (F508del‐CFTR) was “had little additional effect”, the “decline of CFTR-mediated Isc over 6 h” value (F508del‐CFTR; low temperature-rescued F508del‐CFTR FRT epithelia treated with cycloheximide 50 μg·ml−1 and compound 10 μM, 37°C) was “slower” and the EC50 (G551D‐CFTR) was 1.68 µM. It also gave an Emax (G551D‐CFTR) of 39%.
